Data as given in ChEMBL document CHEMBL1155192, “The identification of beta-hydroxy carboxylic acids as selective MMP-12 inhibitors” (Bioorg Med Chem Lett, 2009).
In brackets after ≈: the same amount, converted by molar mass.

Key:
[1] = biological target: T1, Interstitial collagenase (Homo sapiens, UniProt P03956); assay: Inhibition of human recombinant MMP1
T1 sequence (P03956 whole entry): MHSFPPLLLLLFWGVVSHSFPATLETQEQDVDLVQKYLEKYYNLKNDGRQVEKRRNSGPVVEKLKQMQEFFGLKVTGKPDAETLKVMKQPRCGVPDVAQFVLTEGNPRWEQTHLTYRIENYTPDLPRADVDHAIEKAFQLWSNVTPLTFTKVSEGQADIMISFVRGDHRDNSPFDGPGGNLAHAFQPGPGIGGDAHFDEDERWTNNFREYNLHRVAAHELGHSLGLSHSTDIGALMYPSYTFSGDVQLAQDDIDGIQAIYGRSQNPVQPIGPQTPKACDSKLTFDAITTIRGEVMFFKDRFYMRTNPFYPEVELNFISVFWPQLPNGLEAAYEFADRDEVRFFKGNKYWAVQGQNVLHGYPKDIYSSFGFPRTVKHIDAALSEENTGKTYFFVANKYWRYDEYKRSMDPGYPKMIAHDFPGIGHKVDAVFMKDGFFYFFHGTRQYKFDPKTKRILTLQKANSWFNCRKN

[2] = biological target: Macrophage metalloelastase (Homo sapiens, UniProt P39900); assay: Inhibition of human recombinant MMP12
[3] = biological target: Collagenase 3 (Homo sapiens, UniProt P45452); assay: Inhibition of human recombinant MMP13
[4] = biological target: Stromelysin-1 (Homo sapiens, UniProt P08254); assay: Inhibition of human recombinant MMP3
[5] = biological target: 72 kDa type IV collagenase (Homo sapiens, UniProt P08253); assay: Inhibition of human recombinant MMP2
[6] = Inhibition of guinea pig recombinant MMP12; design: species or system Cavia porcellus
[7] = biological target: Matrix metalloproteinase-9 (Homo sapiens, UniProt P14780); assay: Inhibition of human recombinant MMP9
[8] = biological target: Angiotensin-converting enzyme (Homo sapiens, UniProt P12821); assay: Inhibition of human recombinant ACE
[9] = biological target: Disintegrin and metalloproteinase domain-containing protein 17 (Homo sapiens, UniProt P78536); assay: Inhibition of human recombinant TACE
[10] = Lipophilicity, log D at pH 6.2; type: physicochemical; conditions: buffer
[11] = Solubility at pH 6.2; type: physicochemical; conditions: buffer
[12] = biological target: T2, Matrilysin (Homo sapiens, UniProt P09237); assay: Inhibition of human recombinant MMP7
T2 sequence (P09237 whole entry): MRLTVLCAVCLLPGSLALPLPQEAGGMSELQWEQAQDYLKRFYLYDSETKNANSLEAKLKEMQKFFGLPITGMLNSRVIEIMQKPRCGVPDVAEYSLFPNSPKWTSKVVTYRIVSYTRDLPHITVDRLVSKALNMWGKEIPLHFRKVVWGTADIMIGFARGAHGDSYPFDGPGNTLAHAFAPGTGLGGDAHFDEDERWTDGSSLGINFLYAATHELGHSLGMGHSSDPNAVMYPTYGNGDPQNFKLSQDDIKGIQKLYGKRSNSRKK

[13] = Lipophilicity, log D at pH 7.4; type: physicochemical; conditions: buffer
[14] = biological target: Matrix metalloproteinase-14 (Homo sapiens, UniProt P50281); assay: Inhibition of human recombinant MMP14
[15] = Solubility at pH 7.4; type: physicochemical; conditions: buffer

Chain of Matrix metalloproteinase-9 (P14780 whole entry): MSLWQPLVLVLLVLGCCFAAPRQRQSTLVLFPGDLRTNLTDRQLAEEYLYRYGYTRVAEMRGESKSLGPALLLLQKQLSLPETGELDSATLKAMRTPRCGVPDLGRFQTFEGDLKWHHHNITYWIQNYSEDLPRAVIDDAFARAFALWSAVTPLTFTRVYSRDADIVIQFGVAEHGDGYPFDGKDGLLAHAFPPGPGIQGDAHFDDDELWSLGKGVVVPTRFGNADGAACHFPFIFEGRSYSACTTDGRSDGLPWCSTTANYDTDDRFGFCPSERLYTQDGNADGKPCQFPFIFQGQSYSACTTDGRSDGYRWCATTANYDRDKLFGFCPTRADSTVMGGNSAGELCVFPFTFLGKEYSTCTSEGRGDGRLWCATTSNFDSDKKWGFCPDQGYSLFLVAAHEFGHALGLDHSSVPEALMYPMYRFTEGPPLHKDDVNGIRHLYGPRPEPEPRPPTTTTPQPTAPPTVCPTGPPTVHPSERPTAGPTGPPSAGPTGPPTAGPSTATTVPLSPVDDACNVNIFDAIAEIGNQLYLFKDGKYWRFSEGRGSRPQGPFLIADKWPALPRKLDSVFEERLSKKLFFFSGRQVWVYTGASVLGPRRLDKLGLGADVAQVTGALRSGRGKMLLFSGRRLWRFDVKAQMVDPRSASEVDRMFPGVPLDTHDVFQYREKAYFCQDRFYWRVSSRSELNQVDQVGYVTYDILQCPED
Chain of Disintegrin and metalloproteinase domain-containing protein 17 (P78536 whole entry, the tested form may be a part): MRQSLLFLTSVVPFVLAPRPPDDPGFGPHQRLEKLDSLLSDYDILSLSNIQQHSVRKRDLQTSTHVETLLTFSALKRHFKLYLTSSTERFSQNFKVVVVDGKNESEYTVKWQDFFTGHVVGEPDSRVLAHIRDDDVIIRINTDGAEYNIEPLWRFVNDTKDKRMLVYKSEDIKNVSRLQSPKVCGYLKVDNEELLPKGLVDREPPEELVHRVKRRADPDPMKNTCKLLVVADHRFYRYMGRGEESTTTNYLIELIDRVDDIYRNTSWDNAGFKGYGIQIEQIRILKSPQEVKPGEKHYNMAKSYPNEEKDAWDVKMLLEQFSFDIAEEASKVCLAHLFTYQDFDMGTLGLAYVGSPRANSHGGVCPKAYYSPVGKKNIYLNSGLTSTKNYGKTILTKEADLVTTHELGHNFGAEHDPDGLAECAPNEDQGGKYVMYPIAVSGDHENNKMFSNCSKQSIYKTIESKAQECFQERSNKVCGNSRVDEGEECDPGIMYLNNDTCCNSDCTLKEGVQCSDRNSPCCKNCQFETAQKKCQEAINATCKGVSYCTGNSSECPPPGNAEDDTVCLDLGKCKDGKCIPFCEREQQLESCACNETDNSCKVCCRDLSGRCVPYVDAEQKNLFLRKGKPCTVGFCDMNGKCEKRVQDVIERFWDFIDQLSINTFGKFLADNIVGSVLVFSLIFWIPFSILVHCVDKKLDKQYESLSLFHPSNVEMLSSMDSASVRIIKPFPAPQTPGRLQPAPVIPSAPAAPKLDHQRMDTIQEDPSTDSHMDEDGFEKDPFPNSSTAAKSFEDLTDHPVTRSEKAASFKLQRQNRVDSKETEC
Chain of Stromelysin-1 (P08254 whole entry): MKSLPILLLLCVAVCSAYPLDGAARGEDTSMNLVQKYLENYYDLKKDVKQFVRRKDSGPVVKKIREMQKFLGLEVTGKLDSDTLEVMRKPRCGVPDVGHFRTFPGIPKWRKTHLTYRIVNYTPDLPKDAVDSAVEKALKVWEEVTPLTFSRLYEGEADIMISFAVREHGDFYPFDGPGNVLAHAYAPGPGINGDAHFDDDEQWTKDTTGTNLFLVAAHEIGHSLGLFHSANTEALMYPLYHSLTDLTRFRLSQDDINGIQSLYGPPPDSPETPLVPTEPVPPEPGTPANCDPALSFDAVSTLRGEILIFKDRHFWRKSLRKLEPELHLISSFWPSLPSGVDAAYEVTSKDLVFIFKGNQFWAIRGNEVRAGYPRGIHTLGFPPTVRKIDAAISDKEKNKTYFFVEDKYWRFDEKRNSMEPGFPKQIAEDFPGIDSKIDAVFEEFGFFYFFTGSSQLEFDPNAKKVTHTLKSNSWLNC
Chain of Angiotensin-converting enzyme (P12821 whole entry, the tested form may be a part): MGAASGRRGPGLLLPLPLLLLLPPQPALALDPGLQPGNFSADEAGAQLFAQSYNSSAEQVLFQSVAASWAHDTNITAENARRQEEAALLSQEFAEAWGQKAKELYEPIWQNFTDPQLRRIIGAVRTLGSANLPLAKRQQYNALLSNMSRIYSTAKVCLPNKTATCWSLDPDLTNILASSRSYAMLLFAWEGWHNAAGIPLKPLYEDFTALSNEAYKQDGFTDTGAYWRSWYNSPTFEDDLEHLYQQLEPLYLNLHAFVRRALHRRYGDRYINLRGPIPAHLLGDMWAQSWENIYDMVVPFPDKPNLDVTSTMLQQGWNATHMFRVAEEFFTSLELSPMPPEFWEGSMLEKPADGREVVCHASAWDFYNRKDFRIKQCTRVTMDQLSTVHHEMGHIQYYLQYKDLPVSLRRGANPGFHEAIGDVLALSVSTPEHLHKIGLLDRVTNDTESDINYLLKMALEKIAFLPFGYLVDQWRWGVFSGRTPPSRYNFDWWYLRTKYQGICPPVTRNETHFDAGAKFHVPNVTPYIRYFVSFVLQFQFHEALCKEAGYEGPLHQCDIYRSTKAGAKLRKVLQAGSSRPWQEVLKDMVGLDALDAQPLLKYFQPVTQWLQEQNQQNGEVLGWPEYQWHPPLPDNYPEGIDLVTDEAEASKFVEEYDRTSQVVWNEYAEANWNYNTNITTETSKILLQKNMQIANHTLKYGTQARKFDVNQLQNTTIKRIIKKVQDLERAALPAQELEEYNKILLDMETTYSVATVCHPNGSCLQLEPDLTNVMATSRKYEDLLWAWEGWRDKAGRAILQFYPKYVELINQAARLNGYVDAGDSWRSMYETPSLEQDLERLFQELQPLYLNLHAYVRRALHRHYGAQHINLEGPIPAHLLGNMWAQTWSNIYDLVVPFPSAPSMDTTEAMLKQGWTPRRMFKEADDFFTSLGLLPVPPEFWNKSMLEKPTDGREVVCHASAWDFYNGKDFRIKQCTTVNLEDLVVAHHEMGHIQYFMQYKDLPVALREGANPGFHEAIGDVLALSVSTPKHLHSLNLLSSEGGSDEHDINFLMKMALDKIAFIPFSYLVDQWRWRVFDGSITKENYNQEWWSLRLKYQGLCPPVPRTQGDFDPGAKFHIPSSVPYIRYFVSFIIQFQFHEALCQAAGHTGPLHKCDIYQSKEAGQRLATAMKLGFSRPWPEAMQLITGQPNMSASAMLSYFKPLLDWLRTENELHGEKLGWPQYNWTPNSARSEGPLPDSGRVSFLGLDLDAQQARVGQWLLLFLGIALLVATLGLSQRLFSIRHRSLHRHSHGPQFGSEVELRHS
Chain of Macrophage metalloelastase (P39900 whole entry): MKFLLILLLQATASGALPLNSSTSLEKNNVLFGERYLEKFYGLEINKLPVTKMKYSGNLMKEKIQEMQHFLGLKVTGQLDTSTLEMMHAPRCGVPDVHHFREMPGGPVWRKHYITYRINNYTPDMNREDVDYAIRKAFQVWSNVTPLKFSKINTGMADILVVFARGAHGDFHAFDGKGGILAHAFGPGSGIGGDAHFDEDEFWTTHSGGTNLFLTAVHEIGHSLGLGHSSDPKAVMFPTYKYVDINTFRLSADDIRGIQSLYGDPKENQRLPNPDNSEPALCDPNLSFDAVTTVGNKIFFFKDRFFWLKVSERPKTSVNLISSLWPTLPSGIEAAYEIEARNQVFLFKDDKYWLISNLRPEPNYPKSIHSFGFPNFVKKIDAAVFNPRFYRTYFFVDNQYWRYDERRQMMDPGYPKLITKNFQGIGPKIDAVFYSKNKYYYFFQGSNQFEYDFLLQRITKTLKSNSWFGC
Chain of 72 kDa type IV collagenase (P08253 whole entry): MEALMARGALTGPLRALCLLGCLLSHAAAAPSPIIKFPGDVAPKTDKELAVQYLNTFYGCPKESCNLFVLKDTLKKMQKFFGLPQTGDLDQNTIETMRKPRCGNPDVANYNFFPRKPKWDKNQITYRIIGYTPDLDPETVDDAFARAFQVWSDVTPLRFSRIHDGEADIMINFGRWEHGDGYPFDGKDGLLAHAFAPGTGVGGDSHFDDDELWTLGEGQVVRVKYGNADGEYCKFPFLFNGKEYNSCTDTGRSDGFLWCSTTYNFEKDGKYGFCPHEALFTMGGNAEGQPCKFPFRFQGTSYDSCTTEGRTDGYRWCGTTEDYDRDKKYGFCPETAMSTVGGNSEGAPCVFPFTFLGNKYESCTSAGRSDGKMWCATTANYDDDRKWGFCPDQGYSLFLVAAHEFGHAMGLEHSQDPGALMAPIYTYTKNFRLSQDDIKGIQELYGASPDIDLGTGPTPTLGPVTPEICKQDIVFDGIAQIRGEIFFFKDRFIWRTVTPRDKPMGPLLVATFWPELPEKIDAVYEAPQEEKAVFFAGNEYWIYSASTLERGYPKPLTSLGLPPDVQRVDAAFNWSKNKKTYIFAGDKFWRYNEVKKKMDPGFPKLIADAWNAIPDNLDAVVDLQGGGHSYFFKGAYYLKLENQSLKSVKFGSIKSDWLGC

| SMILES | IC50 [1] | IC50 [2] | IC50 [3] | also measured |
| --- | --- | --- | --- | --- |
| O=C(O)CC(O)CCc1ccc(-c2ccc(OCc3ccccc3)cc2)cc1 (stereo unspecified) | > 98 µM | 3.75 µM | > 98 µM |  |
| O=C(O)C[S+]([O-])CCc1ccc(-c2ccccc2)cc1 (stereo unspecified) | > 98 µM | 4.5 µM | 95.9 µM |  |
| O=C(O)CC(=O)CCc1ccc(-c2ccccc2)cc1 | > 98 µM | 7.84 µM | > 98 µM |  |
| O=C(O)CSCCc1ccc(-c2ccccc2)cc1 | > 98 µM | 11.8 µM | 95.2 µM |  |
| O=C(O)CC(O)CCc1ccc(-c2cc3ccccc3o2)cc1 (stereo unspecified) |  | 0.181 µM | 50.2 µM |  |
| CC(=O)OC(CCc1ccc(-c2ccccc2)cc1)CC(=O)O (stereo unspecified) | > 98 µM | 54.4 µM | > 98 µM |  |
| N#Cc1cccc(-c2ccc(CCC(O)CC(=O)O)cc2)c1 (stereo unspecified) | > 98 µM | 3.39 µM | 52 µM |  |
| O=C(O)CC(O)CCc1ccc(-c2ccc(Oc3ccccc3)cc2)cc1 (stereo unspecified) | > 98 µM | 19.9 µM | 41.9 µM |  |
| COC(CCc1ccc(-c2ccccc2)cc1)CC(=O)O (stereo unspecified) | > 98 µM | 3.53 µM | > 98 µM |  |

Compounds with a lower IC50 [3], results first:

| IC50 [1] | IC50 [2] | IC50 [3] | SMILES | also measured |
| --- | --- | --- | --- | --- |
| > 98 µM | 2.49 µM | 11.3 µM | O=C(O)CS(=O)(=O)CCc1ccc(-c2ccccc2)cc1 |  |
| > 98 µM | 0.058 µM | 1.13 µM | CSc1ccc(-c2ccc(CCC(O)CC(=O)O)cc2)cc1 (stereo unspecified) |  |
|  | 0.055 µM | 3.76 µM | O=C(O)CC(O)CCc1ccc(-c2ccncc2)cc1 (stereo unspecified) |  |
| > 98 µM | 20.1 µM | 33.5 µM | O=C(O)CC(O)CCc1ccc(-c2ccc3c(c2)oc2ccccc23)cc1 (stereo unspecified) |  |
| > 98 µM | 0.086 µM | 2.45 µM | N#Cc1ccc(-c2ccc(CCC(O)CC(=O)O)cc2)cc1 (stereo unspecified) |  |
| > 98 µM |  | 0.97 µM | CC(=O)c1ccc(-c2ccc(CCC(O)CC(=O)O)cc2)cc1 (stereo unspecified) |  |
| > 98 µM |  | 12 µM | O=C(O)CC(O)CCc1ccc(-c2ccccc2)cc1 (racemic) | IC50 [4]: > 98 µM; IC50 [5]: 4.52 µM; IC50 [6]: 0.91 µM; IC50 [7]: 16.5 µM; IC50 [8]: > 250 µM; IC50 [9]: > 98 µM; logD [10]: 1.43; solubility [11]: 450 µg/mL (≈ 1660 µM); IC50 [12]: > 98 µM; logD [13]: 0.55; IC50 [14]: 43.5 µM; solubility [15]: 960 µg/mL (≈ 3550 µM) |
| > 98 µM | 0.34 µM | 9.99 µM | O=C(O)CC(O)CCc1ccc(-c2ccccc2)cc1 (single isomer, unassigned) | IC50 [4]: > 98 µM; IC50 [6]: 1.14 µM; IC50 [7]: 10.5 µM; IC50 [8]: > 250 µM; IC50 [9]: > 98 µM; IC50 [12]: > 98 µM; IC50 [14]: 36.6 µM |
| > 98 µM | 0.79 µM | 36.8 µM | O=C(O)CC(O)CCc1ccc(-c2ccccc2)cc1 (stereo in doubt) | IC50 [4]: > 98 µM; IC50 [6]: 4.67 µM; IC50 [7]: 19.1 µM; IC50 [8]: > 250 µM; IC50 [9]: > 98 µM; IC50 [12]: > 98 µM; IC50 [14]: > 9 µM |
